Results published in US6455510B1, “Chemical Compounds” (SmithKline Beecham Corporation, priority 1997, dated 2002).

Experiments:
[1] = target: T1, human adenosine A1 receptor (Homo sapiens, UniProt P30542); experiment: Reporter gene assay (CRE/SPAP) in CHO cells, agonist activity, adenosine A1; type: cell-based; conditions: CHO cells stably transfected with human adenosine A1 receptor; inhibition of forskolin-stimulated SPAP production; potency relative to NECA=1
T1 construct: expressed in transfected cells; host or cells: Chinese hamster ovary (CHO) cells containing CRE/SPAP/HYG reporter elements
T1 sequence (P30542 1-326): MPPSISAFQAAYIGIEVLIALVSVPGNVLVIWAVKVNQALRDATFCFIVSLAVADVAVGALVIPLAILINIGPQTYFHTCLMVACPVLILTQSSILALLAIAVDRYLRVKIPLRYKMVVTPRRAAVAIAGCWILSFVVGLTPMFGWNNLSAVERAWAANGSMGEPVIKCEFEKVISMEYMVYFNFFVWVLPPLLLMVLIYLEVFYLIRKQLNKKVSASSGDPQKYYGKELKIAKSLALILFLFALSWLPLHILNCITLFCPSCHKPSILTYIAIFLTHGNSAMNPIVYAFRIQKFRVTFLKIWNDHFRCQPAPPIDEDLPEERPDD
Method: (§1) Reporter Gene Experiments
Agonist activity was measured in Chinese hamster ovary (CHO) cells containing the CRE/SPAP/HYG (CRE=cyclic AMP response element; HYG=hygromycin resistance; SPAP=secreted placental alkaline phosphatase) reporter gene elements, which upon stimulation of cAMP levels produced SPAP. A cell line was used, which was stably transfected with either the human adenosine Al receptor or the human adenosine A3 receptor in addition to the above elements. Cells were plated out in 96-well plates in culture medium and incubated at 37° C. for 1 hour. […] 15 Min later, cAMP levels were stimulated by addition of a maximal concentration of forskolin. All cells were then incubated for a further 5 hours at 37° C., and cooled to room temperature, after which a substrate for the phosphatase (para-nitrophenol phosphate, pNPP), which is converted by SPAP to a coloured reagent) was then added and the 96-well plates were read in a plate reader. From these readings, the concentration-dependence of the inhibition by the agonist for forskolin-stimulated SPAP production can be calculated.
(§2) (ECR=equipotent concentration ratio relative to NECA=1)

[2] = target: T2, human adenosine A3 receptor (Homo sapiens, UniProt P0DMS8); experiment: Reporter gene assay (CRE/SPAP) in CHO cells, agonist activity, adenosine A3; type: cell-based; conditions: CHO cells stably transfected with human adenosine A3 receptor; inhibition of forskolin-stimulated SPAP production; potency relative to NECA=1
T2 construct: expressed in transfected cells; host or cells: Chinese hamster ovary (CHO) cells containing CRE/SPAP/HYG reporter elements
T2 sequence (P0DMS8 1-318): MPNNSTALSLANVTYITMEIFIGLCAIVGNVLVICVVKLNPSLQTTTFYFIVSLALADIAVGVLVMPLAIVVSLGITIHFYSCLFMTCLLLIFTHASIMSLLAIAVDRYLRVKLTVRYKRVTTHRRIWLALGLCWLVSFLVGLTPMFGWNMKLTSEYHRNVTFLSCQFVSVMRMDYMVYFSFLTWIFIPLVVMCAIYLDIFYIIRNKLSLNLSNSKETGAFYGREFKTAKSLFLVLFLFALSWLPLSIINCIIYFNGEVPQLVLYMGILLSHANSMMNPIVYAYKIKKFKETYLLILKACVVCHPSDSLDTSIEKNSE
Method: as §1
Agonist activity was measured in Chinese hamster ovary (CHO) cells containing the CRE/SPAP/HYG (CRE=cyclic AMP response element; HYG=hygromycin resistance; SPAP=secreted placental alkaline phosphatase) reporter gene elements, which upon stimulation of cAMP levels produced SPAP. A cell line was used, which was stably transfected with either the human adenosine Al receptor or the human adenosine A3 receptor in addition to the above elements. Cells were plated out in 96-well plates in culture medium and incubated at 37° C. for 1 hour. For measurement of potency, agonists were added to the appropriate wells at a concentration range of approximately 10^−10-10^−5M. 15 Min later, cAMP levels were stimulated by addition of a maximal concentration of forskolin. All cells were then incubated for a further 5 hours at 37° C., and cooled to room temperature, after which a substrate for the phosphatase (para-nitrophenol phosphate, pNPP), which is converted by SPAP to a coloured reagent) was then added and the 96-well plates were read in a plate reader. From these readings, the concentration-dependence of the inhibition by the agonist for forskolin-stimulated SPAP production can be calculated. One of the agonists tested on each 96-well plate was the standard non-selective agonist, N-ethylcarboxamidoadenosine (NECA), and the potency of all test agonists is expressed relative to that of the NECA standard.
as §2

SMILES	A1 Receptor, Reporter Gene Assay ECR (equipotent concentration ratio relative to NECA=1) [1]	A3 Receptor, Reporter Gene Assay ECR (equipotent concentration ratio relative to NECA=1) [2]
CC(C)(C)Nc1ncnc2c1ncn2[C@@H]1O[C@H](CF)[C@@H](O)[C@H]1O [Example 20, N-tert-Butyl-5′-deoxy-5′-fluoro-adenosine]	8.17	>353.00
CC(F)(F)[C@H]1O[C@@H](n2cnc3c(NC4CC5CCC4C5)ncnc32)[C@H](O)[C@@H]1O (stereo partly drawn) [Example 5, (2R,3R,4S,5S)-2-[6-(Bicyclo[2.2.1]hept-2-ylamino)-purin-9-yl]-5-(1,1-difluoro-ethyl)-tetrahydro-furan-3,4-diol]	7.14	>257.00
OCC(O)CNc1nc(Cl)nc2c1ncn2[C@@H]1O[C@H](CF)[C@@H](O)[C@H]1O (stereo partly drawn) [Example 16, 2-Chloro-5′-deoxy-N-(2,3-dihydroxy-propyl)-5′-fluoro-adenosine]	7.29	>240.00
O[C@@H]1[C@H](O)[C@@H](CF)O[C@H]1n1cnc2c(NC3CCOCC3)nc(Cl)nc21 [Example 3, 2-Chloro-5′-deoxy-5′-fluoro-N-(tetrahydro-pyran-4-yl)-adenosine]	2.41	>139.00
Cc1nc(NC2CCOCC2)c2ncn([C@@H]3O[C@H](CF)[C@@H](O)[C@H]3O)c2n1 [Example 2, 5′-Deoxy-5′-fluoro-2-methyl-N-(tetrahydro-pyran-4-yl)-adenosine]	11.8	>226.00
O[C@@H]1[C@H](O)[C@@H](CF)O[C@H]1n1cnc2c(NC3CCSCC3)ncnc21 [Example 21, 5′-Deoxy-5′-fluoro-N-(tetrahydro-thiopyran-4-yl)-adenosine]	1.64	>353.00
